This note sets out measurements from patent US12365670B2, “GLP-IR agonists and uses thereof” (QILU REGOR THERAPEUTICS INC., priority 2018, dated 2025).

pEC50: −log10 of the molar value.

The target of the test is GLP1R (Homo sapiens, UniProt P43220). Kind of test: GLP1R cAMP HTRF assay, HEK293/GLP-1R/CRE/Luc (HEK293T cells). The settings on record: concentration yielding 50% of the maximum cAMP level of the same compound. Format: cell-based. The protocol:
GLP-1R-mediated agonist activity was determined with a cell-based functional assay utilizing an HTRF (Homogeneous Time-Resolved Fluorescence) cAMP detection kit (cAMP Dynamic 2 Assay Kit; CisBio cat #62AM4PEC) that measures cAMP levels in the cell. The method is a competitive immunoassay between native cAMP produced by the cells and exogenous cAMP labeled with the dye d2. The tracer binding is visualized by a mAb anti-cAMP labeled with Cryptate. The specific signal (i.e., energy transfer) is inversely proportional to the concentration of cAMP in either standard or experimental sample.
A cell line stably expressing the receptor was isolated. […]
IBMX and BSA were freshly added on the day of assay]. A 10 μL sample of the cell suspension was counted on an Invitrogen Countess II to determine cell viability and cell count per mL. […]
Following the 30 minute incubation, 5 μL of labeled d2 cAMP and 5 μL of anti-cAMP antibody (both diluted 1:20 in cell lysis buffer; as described in the manufacturer's assay protocol) were added to each well of the assay plate. […] Raw data were converted to nM cAMP by interpolation from a cAMP standard curve (as described in the manufacturer's assay protocol) and the percent effect was determined relative to a saturating concentration of the full agonist GLP-17-37 (10 nM) included on each plate. […]

Sequence of GLP1R (P43220 24-463): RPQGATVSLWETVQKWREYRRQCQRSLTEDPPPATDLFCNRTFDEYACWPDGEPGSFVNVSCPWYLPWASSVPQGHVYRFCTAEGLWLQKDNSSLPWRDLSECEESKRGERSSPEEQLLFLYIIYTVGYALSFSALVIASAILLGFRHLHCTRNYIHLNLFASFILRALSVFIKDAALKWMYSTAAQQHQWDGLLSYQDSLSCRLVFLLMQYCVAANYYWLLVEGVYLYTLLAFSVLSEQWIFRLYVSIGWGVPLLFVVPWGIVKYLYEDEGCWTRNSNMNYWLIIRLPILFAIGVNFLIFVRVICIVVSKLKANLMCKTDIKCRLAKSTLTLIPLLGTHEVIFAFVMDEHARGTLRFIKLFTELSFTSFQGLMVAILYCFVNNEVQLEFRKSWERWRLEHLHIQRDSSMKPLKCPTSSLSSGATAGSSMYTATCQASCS

Molecule `N#Cc1ccc(COc2cc(F)cc(C3=CCN(Cc4nc5ccc(C(=O)O)cc5n4C[C@@H]4CCO4)CC3)c2)c(F)c1` [Compound 218, (S)-2-((4-(3-((4-cyano-2-fluorobenzyl)oxy)-5-fluorophenyl)-5,6-dihydropyridin-1(2H)-yl)methyl)-1-(oxetan-2-ylmethyl)-1H-benzo[d]imidazole-6-carboxylic acid] gave a pEC50 of no less than 6.82.
